Measured values published in patent US6337318B1, “Sustained GnRH peptide-release formulation” (Peptech, Ltd., priority 1996, dated 2002).
Values belong to the compound of their own block, whether it stands above or below them.

Columns and labels:
[1] = test system: advanced prostatic cancer; conditions: monthly subcutaneous injections, advanced prostatic cancer patients; cited from earlier work
prostate cancer in rats = conditions: controlled dose over 30 days vs equivalent or double daily doses of free peptide; cited from earlier work
plasma testosterone = assay: suppression of plasma testosterone levels in implanted dogs; type: in vivo, dog; conditions: 5% deslorelin; for duration of suppression of testosterone levels: rods of 93% stearin, 2% lecithin, 0.5, 1 or 2 x 120 mg rod containing 6 mg deslorelin
Description: (§1) Stearin (supplied as free flowing beads of 1 mm or less in diameter made by Vandenberg Foods) and lecithin (supplied as a deep brown viscous syrup from R P Schearer) were hand mixed using a spatula in a small beaker. The deslorelin was then added and thoroughly mixed into the excipients. The mixed material was transferred to the barrel of a ram extruder that has a 1 mm nozzle attached and is equilibrated to 55° C. The ram extrusion pressure is 40 psi. The ram was attached and pressure applied until the product began to extrude. At this point the pressure was backed off and the product allowed to reach 55° C. The product was then extruded-3 g over a 30 second period. The resulting extrudate was allowed to cool and then broken up and re-extruded through a 1 mm nozzle. This step was included to ensure uniformity of content throughout the matrix. The 1 mm nozzle was then replaced with a 2.3 mm diameter nozzle. The same product temperature equilibration procedure was conducted prior to extrusion. The product was then extruded and after cooling the long rods produced could be sectioned into lengths of the required weight.
(§2) The rods produced were implanted into male dogs using standard techniques.
Stearin beads (ADMUL PO 58 from Quest International Australasia Limited) and lecithin (Topcithin 300, Bronson & Jacobs, Australia) were hand mixed using a spatula in a small beaker. The deslorelin was then added and thoroughly mixed into the excipients. The material was transferred to the barrel of a ram extruder that has a 1 mm nozzle attached and is equilibrated to 55.8° C. The ram extrusion pressure is 40 psi. The ram was then attached and pressure applied until the product began to extrude. At this point the pressure was backed off and the product allowed to reach 55.8° C. The product was then extruded-3 g over a 30 second period. The resulting extrudate was allowed to cool and then broken up before re-extruding the mixed granulation through the 1 mm nozzle at 58.3° C. and into an injectable mould that generates a finished rod product that is 2.3 mm in diameter and approximately 25 mm long. […]

[2] = in vitro release of deslorelin from the rods; type: physicochemical; conditions: rods of 94% stearin, 5% deslorelin (on an active basis), 1% lecithin
Description: Typically, the formulation of the first aspect will release the peptide agonist or analogue, in vitro, into phosphate buffered saline (PBS: pH 7.3, prepared by dissolving 8.00 g of sodium chloride, 1.00 g di-sodium hydrogen phosphate anhydrous, 0.40 g sodium dihydrogen phosphate dihydrate (0.31 g if anydrous), and 0.05 g sodium azide in 1 litre of deionised water), at 37° C. at a rate of about 2-350 μg/day for at least 200 days but preferably for at least 300 days.
as §1, with “The same product temperature equilibration procedure was conducted prior to extrusion. The product was then extruded and after cooling the long rods produced could be sectioned into lengths of the required weight.” left out

male dogs = assay: testicular size in male dogs implanted with rods; type: in vivo, dog; conditions: implanted rods of 94% stearin, 5% deslorelin, 1% lecithin
Description: as §1, §2

estradiol levels = conditions: female patients; provided peptide delivered so as to maintain a constant minimum blood level; cited from earlier work

Compound: CC(C)C[C@H](NC(=O)[C@@H](COC(C)(C)C)NC(=O)[C@H](Cc1ccc(O)cc1)NC(=O)[C@H](CO)NC(=O)[C@H](Cc1c[nH]c2ccccc12)NC(=O)[C@H](Cc1cnc[nH]1)NC(=O)[C@@H]1CCC(=O)N1)C(=O)N[C@@H](CCCNC(=N)N)C(=O)N1CCC[C@H]1C(=O)NNC(N)=O [goserelin, 3-[5 oxo-L-prolyl-L-tryptophyl-L-seryl-L-tyrosyl-(3-O-tert-butyl)-D-seryl-L-leucyl-L-arginyl-L-prolyl] cabazamide acetate.]
- efficacy compared with orchiectomy [1]: as effective as orchiectomy
- tolerability [1]: well tolerated

Compound: 5-oxo-L-prolyl-L-histidyl-L-tryptophyl-L-seryl-L-tyrosyl-D-tryptophyl-L-leucyl-L-arginyl-L-prolylglycinamide. [triptorelin]
- suppression of prostate tumour weight, microencapsulated form versus daily subcutaneous free peptide (prostate cancer in rats): more effective
- suppression of serum testosterone levels, microencapsulated form versus daily subcutaneous free peptide (prostate cancer in rats): more effective

- duration of release of deslorelin from the rods in vitro [2]: up to 250 days
Compound: CCNC(=O)[C@@H]1CCCN1C(=O)[C@H](CCCN=C(N)N)NC(=O)[C@H](CC(C)C)NC(=O)[C@@H](Cc1c[nH]c2ccccc12)NC(=O)[C@H](Cc1ccc(O)cc1)NC(=O)[C@H](CO)NC(=O)[C@H](Cc1c[nH]c2ccccc12)NC(=O)[C@H](Cc1cnc[nH]1)NC(=O)[C@@H]1CCC(=O)N1 [deslorelin, [6-D-tryptophan-9-(N-ethyl-L prolinamide)-10-deglycinamide]]
- duration of suppression of testosterone levels (plasma testosterone; bitches): at least 5 months
- duration of suppression of testosterone levels (plasma testosterone; dogs (male)): ≥ 12 months
- duration of suppression of plasma testosterone levels (plasma testosterone; male dogs, implanted rods of 94% stearin, 1% lecithin): at least 4 months
- duration of continued decline in testicular size (male dogs): at least 5 months
- suppression of estradiol levels (estradiol levels): effective
